Assay results taken from patent US20190315711A1 (eXIthera Pharmaceuticals, Inc., priority 2016, published 2019).

Key:
Trypsin = target: T1, Trypsin (Bos taurus, UniProt P00760); test: Dose response assay for protease inhibitors: trypsin; assay type: biochemical; details: ratio versus Factor XIa
T1 construct: gene PRSS1
T1 sequence (P00760 24-246): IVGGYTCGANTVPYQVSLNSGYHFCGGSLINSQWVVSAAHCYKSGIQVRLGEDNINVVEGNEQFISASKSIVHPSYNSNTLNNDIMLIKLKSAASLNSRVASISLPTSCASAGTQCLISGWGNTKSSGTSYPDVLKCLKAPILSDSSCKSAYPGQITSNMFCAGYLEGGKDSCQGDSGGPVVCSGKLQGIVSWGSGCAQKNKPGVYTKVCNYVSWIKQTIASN
Protocol: (§1) • Assay buffer: 20 mM Hepes, pH 7.4; 150 mM NaCl; 0.02% Tween 20 • Compounds: 10 mM stocks in DMSO • Substrate: 20 mM Glp-Pro-Arg-AMC, 25 mg/2.3 mL H2O (store at +4° C.) [Factor XIa, thrombin, and trypsin] • 20 mM Pro-Phe-Arg-AMC (Bachem I-1295), 25 mg/2.2 mL H2O or Boc-Leu-Gly-Arg-AMC (Bachem I-1105), 25 mg/2.07 mL H2O (store at +4° C.) [Factor Xa] • Enzyme: Factor XIa; 0.25 M in 50% glycerol (20 μg/mL) • Trypsin; 0.2 μM in 50% glycerol (4.8 μg/mL) • Thrombin; 0.2 μM in 50% glycerol (7.34 μg/mL) • Factor Xa; 0.2 μM in 50% glycerol (9.2 μg/mL)
(§2) • 1. Dilute the substrate to 100 μM in assay buffer (30 μL/6 mL). The enzyme is diluted to 0.5 nM just prior to use (12 L/6 mL for Factor XIa; 15 μL/6 mL for all of the rest.) • 2. Pipette 50 μL of substrate into each well of the 96 well (12×8) microtiter plate. (Column 1 is used as the 100% activity control and receives no compound, and Column 12 is the blank and receives no enzyme.) Add an additional 46 μL to column 2. • 3. Pipette 4 μL of each compound into the appropriate well in column 2 of the plate (unknowns assayed in triplicate, standard assayed in duplicate). The final compound concentration will be 1/50th of the stock. • 4. Serially two-fold dilute the compound by mixing the sample in column 2, removing 50 μL to the next well (column 3), mix and remove to column 4, etc. until column 11. After mixing column 11, remove 50 μL and discard. • 5. Pipette 50 μL of buffer into column 12. Initiate the reaction by adding 50 μL of enzyme solution to each well of columns 1-11 as rapidly as possible. • 6. Read the plate in a spectrophotometer (SpectraMax) at 30° C., wherein each well is measured every 60 s for 30 min. For Factor Xa assays, each well is measured every 1 min for a total of 60 min. • 7. For Factor XIa assays, the compounds are assayed, in duplicate, at 3 different starting concentrations, 20, 2, and 0.2 μM; 1:10, 1:100, and 1:1000 dilution of 10 mM stock or at 2, 0.2, and 0.02 μM; 1:100, 1:1000, and 1:10,000 dilution of 10 mM stock. Data for each concentration are combined for graphing and data fitting. • 8. Data can be used both for estimation of IC50 and for estimation of Kon.

Thrombin = target: T2, Thrombin (Homo sapiens, UniProt P00734); test: Dose response assay for protease inhibitors: thrombin; assay type: biochemical; details: ratio versus Factor XIa
T2 construct: Thrombin; 0.2 μM in 50% glycerol (7.34 μg/mL)
Protocol: as §1, §2

Factor Xa = target: T3, Factor Xa (Homo sapiens, UniProt P00742); test: Dose response assay for protease inhibitors: Factor Xa; assay type: biochemical; details: ratio versus Factor XIa
T3 construct: Factor Xa; 0.2 μM in 50% glycerol (9.2 μg/mL)
Protocol: as §1, §2

human Factor XIa = human Factor XIa (Homo sapiens, UniProt P03951); test: Factor XIa enzyme inhibition assay (dose response, fluorogenic AMC substrate); assay type: biochemical; set-up: Enzyme: Factor XIa; details: purified enzyme; substrate 50 μM, enzyme 0.25 nM; read-out: hFXIa IC50
Protocol: as §1, §2
Potential inhibitors of Factor XIa were evaluated using the following assay.
PyroGlu-Pro-Arg-7-methylaminocourin (AMC), available from CPC Scientific, Inc., is based on the substrate pyro-Glu-Pro-Arg-pNA (S-2366), available from Diapharma Group, Inc. (Columbus, Ohio), wherein the p-nitroanaline group is replaced with 7-methylaminocoumarin (AMC).
The final concentration of the substrate in the assay was 50 μM, and the final concentration of the enzyme was 0.25 nM. Inhibitors were tested by serial dilution over an appropriate range to yield a dose response curve for determination of the inhibitors' IC50 value. The assay mixture was read every minute for 30 minutes in order to generate progress curves. The plates were read in a Spectramax m5 Multimode Plate Reader (Molecular Devices LLC, Sunnyvale, Calif.). Dose response curves were fit to Equation 1 below in which A is the maximum inhibition, B is the minimum inhibition, C is the IC50, and D is the Hill coefficient.
Y=[(A−B)/(1+(X/C)^D)]+B (Equation 1)

[1] = Caco-2 cell permeability assay (A-B and B-A); assay type: in vitro ADME; details: human; for Papp A→B at 60 min, 10 μM: A-B direction; for Papp B→A at 40 min, 10 μM: B-A direction
Protocol: The following procedure was used to determine the ability of a test compound to cross Caco-2 cells (human intestinal epithelial cells derived from a colorectal adenocarcinoma). The cells were seeded at 1×10^5 cells/cm^2 in 96-well Multiscreen™ plates (Millipore). Permeability assays were performed with the cells at days 21-25 post-seeding. Cells are typically used for 15 consecutive passages in culture.
This assay can be performed in either the apical to basolateral (A−B) or basolateral to apical (B−A) direction. The test compound was prepared at 10 μM in HBSS-MES (pH 6.5) or HBSS-HEPES (pH 7.4) with a final DMSO concentration of 1%. The working solution was then centrifuged and the supernatant added to the donor side. The assay plate was incubated at 37° C. with gentle shaking for 60 min or 40 min for the A−B or B−A assay, respectively. Samples were aliquoted from the donor side at time zero and the end point, and from the receiver side at the end point.
Reference compounds, propranolol (highly permeable), labetalol (moderately permeable), ranitidine (poorly permeable), and colchicine (P-glycoprotein substrate) were included in each assay.
Samples are analyzed by HPLC-MS/MS using selected reaction monitoring. The HPLC system consists of a binary LC pump with autosampler, a C-18 column, and a gradient.
The apparent permeability coefficient (Papp) of the test compound (Equation 2) and its recovery (Equation 3) are calculated as follows: […]
wherein A is the surface area of the cell monolayer (0.11 cm^2), C is concentration of the test compound expressed as peak area, D denotes donor, and R is receiver. “0”, “mid,” and “end” denote time at zero, mid-point, and end of the incubation, respectively. At is the incubation time. V is the volume of the donor or receiver.
This is most likely due to non-specific binding or degradation.

T3 sequence (P00742 235-488 limits assumed): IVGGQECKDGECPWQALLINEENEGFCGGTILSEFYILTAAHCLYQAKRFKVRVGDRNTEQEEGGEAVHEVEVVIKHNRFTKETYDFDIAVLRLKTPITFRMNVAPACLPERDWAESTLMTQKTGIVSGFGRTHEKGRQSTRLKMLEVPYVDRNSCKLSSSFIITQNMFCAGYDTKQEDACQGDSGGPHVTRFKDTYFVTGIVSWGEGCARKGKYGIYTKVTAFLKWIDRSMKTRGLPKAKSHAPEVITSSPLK
T3 sequence (P00742 41-179 partner limits assumed): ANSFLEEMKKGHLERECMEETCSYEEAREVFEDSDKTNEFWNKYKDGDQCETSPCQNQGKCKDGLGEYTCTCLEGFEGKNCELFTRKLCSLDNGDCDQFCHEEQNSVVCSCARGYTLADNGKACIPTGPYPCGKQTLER
Sequence of human Factor XIa (P03951 388-625 limits assumed): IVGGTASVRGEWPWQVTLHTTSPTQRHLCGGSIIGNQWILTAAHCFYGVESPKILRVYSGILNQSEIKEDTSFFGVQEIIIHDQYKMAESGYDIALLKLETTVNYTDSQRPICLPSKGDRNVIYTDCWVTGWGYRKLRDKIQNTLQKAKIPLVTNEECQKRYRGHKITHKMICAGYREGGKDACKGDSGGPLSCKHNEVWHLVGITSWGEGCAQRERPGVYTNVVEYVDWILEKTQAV
Sequence of human Factor XIa (P03951 19-387 partner limits assumed): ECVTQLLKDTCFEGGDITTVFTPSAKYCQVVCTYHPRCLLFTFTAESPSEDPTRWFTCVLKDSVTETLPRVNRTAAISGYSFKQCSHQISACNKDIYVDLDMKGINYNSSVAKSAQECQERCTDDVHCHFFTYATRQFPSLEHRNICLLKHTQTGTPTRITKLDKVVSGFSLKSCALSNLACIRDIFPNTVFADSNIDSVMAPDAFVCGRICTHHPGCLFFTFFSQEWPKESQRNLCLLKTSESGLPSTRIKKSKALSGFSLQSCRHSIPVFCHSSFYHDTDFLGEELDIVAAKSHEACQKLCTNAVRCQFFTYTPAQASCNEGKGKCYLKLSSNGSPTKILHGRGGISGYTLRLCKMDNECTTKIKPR

Ratio: Trypsin/FXIa (Trypsin)	Ratio: Thrombin/FXIa (Thrombin)	FXa/FXIa (selectivity ratio) (Factor Xa)	IC50 (human Factor XIa) [nM]	Papp A→B at 60 min, 10 μM [1] [×10⁻⁶ cm/s]	Papp B→A at 40 min, 10 μM [1] [×10⁻⁶ cm/s]	SMILES
G (“G” indicates 1-100)	H (“H” indicates 101-1000)	I (“I” indicates >500)	< 10	–	–	CC[C@@H](NC(=O)N1C(=O)[C@H](Cc2ccnc(N)c2)[C@H]1C(=O)N(C)c1cccc(F)c1)C1CCCCC1 [Compound 29]
G (“G” indicates 1-100)	H (“H” indicates 101-1000)	I (“I” indicates >500)	< 10	–	–	CC[C@@H](NC(=O)N1C(=O)[C@H](Cc2ccnc(N)c2)[C@H]1C(=O)N(CC)c1ccccc1)C1CCCCC1 [Compound 31]
G (“G” indicates 1-100)	H (“H” indicates 101-1000)	I (“I” indicates >500)	< 10	–	–	CC(C)[C@@H](NC(=O)N1C(=O)[C@H](Cc2ccnc(N)c2)[C@H]1C(=O)N(C)c1ccccc1)C1CCCCC1 [Compound 35]
–	–	–	< 10	≤ 10	≤ 10	CCN(C(=O)[C@@H]1[C@@H](Cc2ccnc(N)c2)C(=O)N1C(=O)N[C@@H](C1CCCCC1)C(F)(F)F)c1ncccn1 [Compound 38]
G (“G” indicates 1-100)	H (“H” indicates 101-1000)	H (“H” indicates 101-1000)	< 10	–	–	CC[C@@H](NC(=O)N1C(=O)[C@H](Cc2ccnc(N)c2)[C@H]1C(=O)N(C)c1ccccc1)c1ccccc1 [Compound 40]
–	–	–	< 10	≤ 10	≤ 10	CC[C@@H](NC(=O)N1C(=O)[C@H](Cc2ccnc(N)c2)[C@H]1C(=O)N(C)c1cc(Cl)cc(Cl)c1)C1CCCCC1 [Compound 51]
–	–	–	< 10	11 to 30	≤ 10	CCN(C(=O)[C@@H]1[C@@H](Cc2ccnc(N)c2)C(=O)N1C(=O)N[C@@H](C1CCCCC1)C1CC1)c1ncccn1 [Compound 54]
G (“G” indicates 1-100)	H (“H” indicates 101-1000)	I (“I” indicates >500)	< 10	–	–	CCN(C(=O)[C@@H]1[C@@H](Cc2ccnc(N)c2)C(=O)N1C(=O)N[C@@H](C1CCCCC1)C1CC1)c1ccccc1 [Compound 55]
H (“H” indicates 101-1000)	H (“H” indicates 101-1000)	H (“H” indicates 101-1000)	10 to 100	–	–	CN(C(=O)[C@@H]1[C@@H](Cc2ccncc2)C(=O)N1C(=O)N[C@@H](C1CCCCC1)C1CC1)c1ccncc1 [Compound 64]
–	G (“G” indicates 1-100)	I (“I” indicates >500)	10 to 100	11 to 30	31 to 50	CN(C(=O)[C@@H]1[C@@H](Cc2ccnc(N)c2)C(=O)N1C(=O)N[C@@H](C1CC1)C(F)(F)F)c1ccccc1 [Compound 70]
–	H (“H” indicates 101-1000)	H (“H” indicates 101-1000)	10 to 100	–	–	CCN(C(=O)[C@@H]1[C@@H](Cc2ccnc(N)c2)C(=O)N1C(=O)N[C@@H](C1CC1)C(F)(F)F)c1ncccn1 [Compound 79]
–	–	I (“I” indicates >500)	10 to 100	–	–	CC[C@@H](NC(=O)N1C(=O)[C@H](Cc2ccnc(N)c2)[C@H]1C(=O)N(C)c1ccncc1)c1ccccc1C [Compound 96]
G (“G” indicates 1-100)	H (“H” indicates 101-1000)	H (“H” indicates 101-1000)	< 10	–	–	CC[C@@H](NC(=O)N1C(=O)[C@H](Cc2ccnc(N)c2)[C@H]1C(=O)N(C)c1ccncc1)c1cccc(Br)c1 [Compound 98]
H (“H” indicates 101-1000)	H (“H” indicates 101-1000)	I (“I” indicates >500)	< 10	–	–	CC[C@@H](NC(=O)N1C(=O)[C@H](Cc2ccnc(N)c2)[C@H]1C(=O)N(C)c1ccncc1)c1ccc(C)nc1 [Compound 104]
G (“G” indicates 1-100)	H (“H” indicates 101-1000)	H (“H” indicates 101-1000)	< 10	–	–	CC[C@@H](NC(=O)N1C(=O)[C@H](Cc2ccnc(N)c2)[C@H]1C(=O)N(C)c1ccncc1)c1cc(Cl)ccc1Cl [Compound 112]
G (“G” indicates 1-100)	H (“H” indicates 101-1000)	H (“H” indicates 101-1000)	< 10	–	–	CC[C@@H](NC(=O)N1C(=O)[C@H](Cc2ccnc(N)c2)[C@H]1C(=O)N(C)c1cccc(F)c1)c1cccc(Cl)c1 [Compound 116]
G (“G” indicates 1-100)	G (“G” indicates 1-100)	H (“H” indicates 101-1000)	< 10	–	–	CC[C@@H](NC(=O)N1C(=O)[C@H](Cc2ccnc(N)c2)[C@H]1C(=O)N(C)c1cccc(C)c1)c1cccc(Cl)c1 [Compound 117]
G (“G” indicates 1-100)	G (“G” indicates 1-100)	H (“H” indicates 101-1000)	< 10	–	–	CC[C@@H](NC(=O)N1C(=O)[C@H](Cc2ccnc(N)c2)[C@H]1C(=O)N(C)c1cccc(Cl)c1)c1cccc(Cl)c1 [Compound 118]
G (“G” indicates 1-100)	H (“H” indicates 101-1000)	I (“I” indicates >500)	< 10	–	–	CC[C@@H](NC(=O)N1C(=O)[C@H](Cc2cc(C)nc(N)c2)[C@H]1C(=O)N(C)c1ccccc1)c1ccccc1 [Compound 119]
